Data on eight compounds can be found in patent publication US12516056B2, “Compounds for inhibition of janus kinase 1” (MANKIND PHARMA LTD., priority 2019, dated 2026).

Experiment [1] addresses T1, Recombinant JAK3 (Homo sapiens, UniProt P52333).
T1 construct: purchased Carna Biosciences
T1 sequence (P52333 1-1124): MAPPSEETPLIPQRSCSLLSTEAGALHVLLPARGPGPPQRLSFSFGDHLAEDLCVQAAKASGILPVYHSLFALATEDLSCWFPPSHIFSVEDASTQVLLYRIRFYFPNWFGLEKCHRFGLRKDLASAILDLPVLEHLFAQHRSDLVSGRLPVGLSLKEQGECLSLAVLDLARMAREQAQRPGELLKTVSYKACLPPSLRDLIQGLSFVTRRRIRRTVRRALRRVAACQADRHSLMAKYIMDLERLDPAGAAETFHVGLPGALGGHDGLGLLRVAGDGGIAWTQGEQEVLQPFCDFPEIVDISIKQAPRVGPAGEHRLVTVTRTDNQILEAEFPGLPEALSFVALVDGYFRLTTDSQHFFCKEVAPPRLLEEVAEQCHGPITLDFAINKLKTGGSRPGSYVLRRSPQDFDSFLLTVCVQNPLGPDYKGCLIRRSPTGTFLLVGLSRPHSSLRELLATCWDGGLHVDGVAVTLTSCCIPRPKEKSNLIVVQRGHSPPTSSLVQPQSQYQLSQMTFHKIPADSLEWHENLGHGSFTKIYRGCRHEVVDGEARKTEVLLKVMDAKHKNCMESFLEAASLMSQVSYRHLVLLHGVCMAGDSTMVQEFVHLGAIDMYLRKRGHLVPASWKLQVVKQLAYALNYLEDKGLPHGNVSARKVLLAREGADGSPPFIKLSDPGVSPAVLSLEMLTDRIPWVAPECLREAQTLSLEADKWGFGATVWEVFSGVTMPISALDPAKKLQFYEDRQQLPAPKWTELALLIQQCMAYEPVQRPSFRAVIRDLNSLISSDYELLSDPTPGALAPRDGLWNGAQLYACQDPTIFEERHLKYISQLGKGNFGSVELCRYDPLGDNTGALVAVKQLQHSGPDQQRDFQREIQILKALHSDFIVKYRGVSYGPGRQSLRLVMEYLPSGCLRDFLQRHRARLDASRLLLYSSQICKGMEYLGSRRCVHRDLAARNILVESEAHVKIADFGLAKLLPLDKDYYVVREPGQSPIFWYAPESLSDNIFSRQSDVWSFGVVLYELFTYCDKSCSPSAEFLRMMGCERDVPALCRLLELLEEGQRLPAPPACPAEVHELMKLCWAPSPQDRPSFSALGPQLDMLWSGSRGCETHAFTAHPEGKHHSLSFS
Description: JAK biochemical assay (LANCE Ultra TR-FRET), JAK3. The conditions noted are these: recombinant JAK3, TR-FRET; read-out: Biochemical Assay (μM) JAK3. In outline:
(§1)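 Kinase reactions ran in buffer of 50 mM HEPES pH 7.5 with 1 mM EGTA, 10 mM MgCl2, 2 mM DTT and 0.01% Tween-20, using recombinant enzyme. Phosphorylated ULight substrate was detected by TR-FRET, and compound effect expressed as % inhibition against vehicle.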

The target in experiment [2] is T2, Recombinant JAK2 (Homo sapiens, UniProt O60674).
T2 construct: purchased Carna Biosciences
T2 sequence (O60674 whole entry): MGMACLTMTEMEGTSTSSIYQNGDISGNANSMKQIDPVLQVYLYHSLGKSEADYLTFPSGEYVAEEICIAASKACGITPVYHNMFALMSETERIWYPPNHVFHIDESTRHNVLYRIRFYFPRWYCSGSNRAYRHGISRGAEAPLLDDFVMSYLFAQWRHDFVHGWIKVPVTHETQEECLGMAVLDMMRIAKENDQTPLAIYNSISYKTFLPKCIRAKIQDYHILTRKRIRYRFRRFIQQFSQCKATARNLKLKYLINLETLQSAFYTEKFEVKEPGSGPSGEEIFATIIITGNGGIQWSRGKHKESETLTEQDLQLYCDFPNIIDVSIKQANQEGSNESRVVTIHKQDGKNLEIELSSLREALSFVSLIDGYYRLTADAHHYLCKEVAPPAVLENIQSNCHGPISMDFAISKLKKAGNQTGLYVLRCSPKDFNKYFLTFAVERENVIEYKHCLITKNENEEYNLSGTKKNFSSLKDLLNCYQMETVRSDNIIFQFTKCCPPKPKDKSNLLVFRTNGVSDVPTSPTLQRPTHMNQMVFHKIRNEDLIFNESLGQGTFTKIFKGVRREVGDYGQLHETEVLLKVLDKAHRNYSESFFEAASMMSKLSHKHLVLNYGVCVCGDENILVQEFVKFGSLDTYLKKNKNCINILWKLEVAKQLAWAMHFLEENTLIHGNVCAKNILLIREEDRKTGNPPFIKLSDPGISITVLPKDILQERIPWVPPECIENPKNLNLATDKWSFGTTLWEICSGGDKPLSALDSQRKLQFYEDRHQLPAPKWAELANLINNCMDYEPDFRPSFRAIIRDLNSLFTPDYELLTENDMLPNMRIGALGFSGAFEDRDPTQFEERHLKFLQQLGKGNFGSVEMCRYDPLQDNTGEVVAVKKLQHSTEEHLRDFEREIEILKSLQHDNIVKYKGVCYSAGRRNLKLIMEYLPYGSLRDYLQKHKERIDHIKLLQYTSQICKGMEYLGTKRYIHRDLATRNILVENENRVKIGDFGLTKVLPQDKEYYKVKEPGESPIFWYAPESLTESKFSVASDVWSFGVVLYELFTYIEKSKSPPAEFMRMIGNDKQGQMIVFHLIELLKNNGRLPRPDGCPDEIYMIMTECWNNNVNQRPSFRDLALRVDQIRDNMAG
Description: JAK biochemical assay (LANCE Ultra TR-FRET), JAK2. Particulars: recombinant JAK2, TR-FRET; read-out: Biochemical Assay (μM) JAK2. A digest of the protocol:
as §1
(In general: Time-resolved FRET reads energy transfer from a long-lived donor to a nearby acceptor.)

Experiment [3] addresses T3, Recombinant JAK1 (Homo sapiens, UniProt P23458).
T3 construct: purchased Carna Biosciences
Description: JAK biochemical assay (LANCE Ultra TR-FRET), JAK1. The conditions noted are these: recombinant JAK1, TR-FRET; read-out: Biochemical Assay (μM) JAK1. A digest of the protocol:
as §1

The test system of experiment [4] is STAT3 phosphorylation by IL-6 in TF-1 cells. Description: JAK cellular assay: STAT3 phosphorylation by IL-6 in TF-1 cells (HTRF). Type of experiment: cell-based. Particulars: Homo sapiens, TF-1, TF-1 cells, IL-6 30 ng/ml, pSTAT3 HTRF; read-out: Cell Based Assay (μM) TF-1/IL-6/pSTAT3. As for the experimental part: TF-1 cells were starved overnight in OptiMEM medium with 0.5% charcoal stripped fetal bovine serum, 0.1 mM nonessential amino acids (NEAA), 1 mM sodium pyruvate and without phenol red in CO2 incubator maintained at 37° c. Next day, cells were resuspended in RPMI without phenol red and dispensed into a 96 well plate at a final cell density of 1,20,000 cells per well. Compounds were diluted in DMSO and added to cells and incubated for 30 minutes in CO2 incubator maintained at 37° c. Final DMSO concentration in cell based assay was 0.2%. Human recombinant cytokines, IL-6 (30 ng/ml) and GMCSF (5 ng/ml) were added to the plate containing cells along with compound and incubated for 20 minutes with gentle tapping at every 5 minutes once. Compound mediated effects on STAT3 and STAT5 phosphorylation was measured in the lysates prepared by using CISBIO pSTAT3 and pSTAT5 detection kits by HTRF method. Background signal obtained from cells which were not activated with cytokines, was subtracted from vehicle controls and compound treated wells.

Experiment [5] concerns the target T4, Recombinant TYK2 (Homo sapiens, UniProt P29597).
T4 construct: purchased Carna Biosciences
Briefly: JAK biochemical assay (LANCE Ultra TR-FRET), TYK2. The conditions noted are these: recombinant TYK2, TR-FRET; read-out: Biochemical Assay (μM) TYK2. A digest of the protocol:
as §1

T4 sequence (P29597 whole entry): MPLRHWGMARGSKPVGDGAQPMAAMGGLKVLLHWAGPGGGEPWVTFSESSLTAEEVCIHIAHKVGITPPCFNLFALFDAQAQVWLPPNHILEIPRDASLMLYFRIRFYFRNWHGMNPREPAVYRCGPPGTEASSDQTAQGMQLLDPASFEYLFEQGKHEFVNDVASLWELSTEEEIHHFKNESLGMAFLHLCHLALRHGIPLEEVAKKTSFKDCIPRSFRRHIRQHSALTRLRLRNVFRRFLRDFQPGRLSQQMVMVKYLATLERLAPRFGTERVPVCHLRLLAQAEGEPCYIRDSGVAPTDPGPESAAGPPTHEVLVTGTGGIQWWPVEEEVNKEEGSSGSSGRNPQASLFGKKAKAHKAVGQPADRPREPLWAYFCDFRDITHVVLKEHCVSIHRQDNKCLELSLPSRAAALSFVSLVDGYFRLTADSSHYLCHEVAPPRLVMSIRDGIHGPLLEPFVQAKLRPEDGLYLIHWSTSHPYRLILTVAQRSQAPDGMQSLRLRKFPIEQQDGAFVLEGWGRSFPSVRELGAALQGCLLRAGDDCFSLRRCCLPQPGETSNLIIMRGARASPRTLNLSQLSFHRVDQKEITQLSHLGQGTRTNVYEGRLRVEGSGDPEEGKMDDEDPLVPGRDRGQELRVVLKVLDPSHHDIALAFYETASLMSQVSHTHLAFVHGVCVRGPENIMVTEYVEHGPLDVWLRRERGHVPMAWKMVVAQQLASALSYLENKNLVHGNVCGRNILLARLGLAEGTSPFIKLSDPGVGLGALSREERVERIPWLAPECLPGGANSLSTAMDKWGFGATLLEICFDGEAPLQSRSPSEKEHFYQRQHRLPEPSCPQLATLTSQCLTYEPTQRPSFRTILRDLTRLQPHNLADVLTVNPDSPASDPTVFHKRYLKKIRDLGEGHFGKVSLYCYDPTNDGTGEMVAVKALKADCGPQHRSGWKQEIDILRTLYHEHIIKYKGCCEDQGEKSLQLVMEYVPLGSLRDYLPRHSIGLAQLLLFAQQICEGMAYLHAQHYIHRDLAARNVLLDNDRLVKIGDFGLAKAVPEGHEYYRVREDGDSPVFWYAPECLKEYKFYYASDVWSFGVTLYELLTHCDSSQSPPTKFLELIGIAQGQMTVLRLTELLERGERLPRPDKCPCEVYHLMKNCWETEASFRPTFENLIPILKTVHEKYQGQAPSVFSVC
T3 sequence (P23458 whole entry): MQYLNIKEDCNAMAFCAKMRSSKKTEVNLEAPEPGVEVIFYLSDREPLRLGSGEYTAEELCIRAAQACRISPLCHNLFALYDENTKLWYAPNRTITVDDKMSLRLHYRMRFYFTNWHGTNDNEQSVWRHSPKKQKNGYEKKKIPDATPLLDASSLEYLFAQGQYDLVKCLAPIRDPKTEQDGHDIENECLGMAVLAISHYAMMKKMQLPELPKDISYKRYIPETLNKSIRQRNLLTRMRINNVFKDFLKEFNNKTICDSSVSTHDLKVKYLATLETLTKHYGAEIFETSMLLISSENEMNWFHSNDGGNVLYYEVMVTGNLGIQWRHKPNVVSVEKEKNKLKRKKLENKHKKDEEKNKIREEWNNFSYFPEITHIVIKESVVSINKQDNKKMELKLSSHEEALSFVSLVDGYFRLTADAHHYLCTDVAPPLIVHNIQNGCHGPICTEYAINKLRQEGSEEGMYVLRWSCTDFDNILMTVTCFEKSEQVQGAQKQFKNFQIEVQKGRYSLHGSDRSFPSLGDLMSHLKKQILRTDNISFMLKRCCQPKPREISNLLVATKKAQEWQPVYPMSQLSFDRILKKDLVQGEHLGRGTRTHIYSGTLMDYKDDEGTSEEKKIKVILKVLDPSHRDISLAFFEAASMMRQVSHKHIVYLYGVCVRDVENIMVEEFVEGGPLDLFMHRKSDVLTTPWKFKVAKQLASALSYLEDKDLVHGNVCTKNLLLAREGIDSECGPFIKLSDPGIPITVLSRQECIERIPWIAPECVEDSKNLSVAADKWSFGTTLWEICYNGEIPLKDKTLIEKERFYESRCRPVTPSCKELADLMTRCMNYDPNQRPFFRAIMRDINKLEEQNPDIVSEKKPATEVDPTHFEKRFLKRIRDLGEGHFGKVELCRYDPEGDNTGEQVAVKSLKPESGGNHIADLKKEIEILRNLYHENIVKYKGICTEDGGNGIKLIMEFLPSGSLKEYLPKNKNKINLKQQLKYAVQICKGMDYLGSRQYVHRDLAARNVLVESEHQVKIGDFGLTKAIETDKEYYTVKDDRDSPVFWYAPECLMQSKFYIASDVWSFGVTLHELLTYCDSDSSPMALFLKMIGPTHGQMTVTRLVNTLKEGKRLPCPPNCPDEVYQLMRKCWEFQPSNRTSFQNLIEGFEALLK

With `N#CCC(=O)N1CC(C(O)(c2ccc(-n3cc(-c4ccnc5[nH]cnc45)cn3)nc2)C(F)(F)F)C1` (stereo not shown) [Example 1245, 3-(3-(1-(6-(4-(3H-imidazo[4,5-b]pyridin-7-yl)-1H-pyrazol-1-yl)pyridin-3-yl)-2,2,2-trifluoro-1-hydroxyethyl)azetidin-1-yl)-3-oxopropanenitrile], the IC50 was more than 0.003 µM in experiment [1]; more than 0.03 µM in experiment [2]; more than 0.001 µM in experiment [3]; more than 1 µM in experiment [4]; more than 1 µM in experiment [5].

For the compound `O=C(NCC(F)(F)F)n1cc(-c2ccnc3[nH]cnc23)cn1` [Example 1064, N-(2,2,2-trifluoroethyl)-4-(3H-imidazo[4,5-b]pyridin-7-yl)-1H-pyrazole-1-carboxamide], the IC50 in experiment [1] was less than 0.5 µM; in experiment [2], less than 0.5 µM; in experiment [3], less than 0.5 µM; in experiment [4], more than 10 µM; in experiment [5], less than 0.5 µM.

`O=C(NC(C1CCCC1)C(F)(F)F)n1cc(-c2ccnc3[nH]c(=O)[nH]c23)cn1` (stereo not shown) [Example 1041, N-(1-cyclopentyl-2,2,2-trifluoroethyl)-4-(2,3-dihydro-2-oxo-1H-imidazo[4,5-b]pyridin-7-yl)-1H-pyrazole-1-carboxamide]: the IC50 in experiment [1] was more than 10 µM; in experiment [2], more than 1 µM; in experiment [3] it was more than 1 µM; in experiment [4], more than 10 µM; in experiment [5] it was more than 1 µM.

As for `CC(C)C(C#N)NC(=O)n1cc(-c2ccnc3[nH]c(=O)[nH]c23)cn1` (stereo not shown) [Example 1044, N-(1-cyano-2-methylpropyl)-4-(2,3-dihydro-2-oxo-1H-imidazo[4,5-b]pyridin-7-yl)-1H-pyrazole-1-carboxamide], the IC50 in experiment [1] is less than 0.5 µM; in experiment [2], less than 0.5 µM; in experiment [3], less than 0.5 µM; in experiment [4], 10 µM; in experiment [5], less than 0.5 µM.

Regarding `N#CC(NC(=O)n1cc(-c2ccnc3[nH]c(=O)[nH]c23)cn1)C1CCCC1` (stereo not shown) [Example 1038, N-(cyano(cyclopentyl)methyl)-4-(2,3-dihydro-2-oxo-1H-imidazo[4,5-b]pyridin-7-yl)-1H-pyrazole-1-carboxamide], the IC50 in experiment [1] is more than 0.5 µM; in experiment [2], more than 0.5 µM; in experiment [3], more than 0.5 µM; in experiment [4], 10 µM; in experiment [5] it was more than 0.5 µM.

On to `O=S(=O)(CCC(c1ccc(-n2cc(-c3ccnc4[nH]cnc34)cn2)nc1)C(F)(F)F)C1CC1` (stereo not shown) [Example 1139, 7-(1-(5-(4-(cyclopropylsulfonyl)-1,1,1-trifluorobutan-2-yl)pyridin-2-yl)-1H-pyrazol-4-yl)-3H-imidazo[4,5-b]pyridine], for which the IC50 in experiment [1] was more than 0.1 µM; in experiment [2], more than 0.5 µM; in experiment [3], more than 0.5 µM; in experiment [4], 1 µM; in experiment [5], more than 1 µM.

In the case of `CC(NC(=O)n1cc(-c2ccnc3[nH]c(=O)[nH]c23)cn1)C(F)(F)F` (stereo not shown) [Example 1030, N-(1,1,1-trifluoropropan-2-yl)-4-(2,3-dihydro-2-oxo-1H-imidazo[4,5-b]pyridin-7-yl)-1H-pyrazole-1-carboxamide], the IC50 in experiment [1] came out at 0.43 µM; in experiment [2] it was 0.066 µM; in experiment [3] it was 0.039 µM; in experiment [4], 10 µM; in experiment [5], 0.093 µM.

Turning to `COC(c1ccc(-n2cc(-c3ccnc4[nH]cnc34)cn2)nc1)(C1CCN(C)CC1)C(F)(F)F` (stereo not shown) [Example 1244, 7-(1-(5-(2,2,2-trifluoro-1-methoxy-1-(1-methylpiperidin-4-yl)ethyl)pyridin-2-yl)-1H-pyrazol-4-yl)-3H-imidazo[4,5-b]pyridine], the IC50 in experiment [1] was more than 0.1 µM; in experiment [2], more than 0.1 µM; in experiment [3] it was less than 0.1 µM; in experiment [4] it was more than 1 µM; in experiment [5], more than 1 µM.
